Broadly, the residual activity is the activity still measured, relative to the control. The inhibition is the change of the read-out against control, counted positive when it falls.

These results are taken from ChEMBL document CHEMBL5696442, “Discovery of type II inhibitors of TGFβ-activated kinase 1 (TAK1) and mitogen-activated protein kinase kinase kinase kinase 2 (MAP4K2)” (J Med Chem, 2015).

In test [1] the target is Cyclin-dependent kinase 2 homolog (Plasmodium falciparum (isolate K1 / Thailand)) (UniProt Q07785). The test can be described thus: Inhibition of Plasmodium falciparum PK5 at 1 uM by Ambit Kinomescan binding assay relative to control; values are per cent of control.
Chain of Cyclin-dependent kinase 2 homolog (Plasmodium falciparum (isolate K1 / Thailand)) (Q07785 whole entry): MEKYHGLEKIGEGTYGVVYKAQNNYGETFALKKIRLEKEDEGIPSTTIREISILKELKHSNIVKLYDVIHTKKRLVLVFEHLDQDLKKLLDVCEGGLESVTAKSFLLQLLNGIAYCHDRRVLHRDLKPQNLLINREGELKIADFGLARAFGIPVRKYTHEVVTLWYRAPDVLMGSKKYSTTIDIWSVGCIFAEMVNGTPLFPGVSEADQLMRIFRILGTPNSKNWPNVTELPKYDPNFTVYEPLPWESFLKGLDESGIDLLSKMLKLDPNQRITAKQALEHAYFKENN
The test system of test [2] is Tyrosine-protein kinase ABL1 (Homo sapiens), P00519 [F317L]. The test can be described thus: Inhibition of phosphorylated ABL1 F317L mutant (unknown origin) at 1 uM by Ambit Kinomescan binding assay relative to control; values are per cent of control.
Chain of Tyrosine-protein kinase ABL1 (Homo sapiens), P00519 [F317L] (P00519 whole entry F317L): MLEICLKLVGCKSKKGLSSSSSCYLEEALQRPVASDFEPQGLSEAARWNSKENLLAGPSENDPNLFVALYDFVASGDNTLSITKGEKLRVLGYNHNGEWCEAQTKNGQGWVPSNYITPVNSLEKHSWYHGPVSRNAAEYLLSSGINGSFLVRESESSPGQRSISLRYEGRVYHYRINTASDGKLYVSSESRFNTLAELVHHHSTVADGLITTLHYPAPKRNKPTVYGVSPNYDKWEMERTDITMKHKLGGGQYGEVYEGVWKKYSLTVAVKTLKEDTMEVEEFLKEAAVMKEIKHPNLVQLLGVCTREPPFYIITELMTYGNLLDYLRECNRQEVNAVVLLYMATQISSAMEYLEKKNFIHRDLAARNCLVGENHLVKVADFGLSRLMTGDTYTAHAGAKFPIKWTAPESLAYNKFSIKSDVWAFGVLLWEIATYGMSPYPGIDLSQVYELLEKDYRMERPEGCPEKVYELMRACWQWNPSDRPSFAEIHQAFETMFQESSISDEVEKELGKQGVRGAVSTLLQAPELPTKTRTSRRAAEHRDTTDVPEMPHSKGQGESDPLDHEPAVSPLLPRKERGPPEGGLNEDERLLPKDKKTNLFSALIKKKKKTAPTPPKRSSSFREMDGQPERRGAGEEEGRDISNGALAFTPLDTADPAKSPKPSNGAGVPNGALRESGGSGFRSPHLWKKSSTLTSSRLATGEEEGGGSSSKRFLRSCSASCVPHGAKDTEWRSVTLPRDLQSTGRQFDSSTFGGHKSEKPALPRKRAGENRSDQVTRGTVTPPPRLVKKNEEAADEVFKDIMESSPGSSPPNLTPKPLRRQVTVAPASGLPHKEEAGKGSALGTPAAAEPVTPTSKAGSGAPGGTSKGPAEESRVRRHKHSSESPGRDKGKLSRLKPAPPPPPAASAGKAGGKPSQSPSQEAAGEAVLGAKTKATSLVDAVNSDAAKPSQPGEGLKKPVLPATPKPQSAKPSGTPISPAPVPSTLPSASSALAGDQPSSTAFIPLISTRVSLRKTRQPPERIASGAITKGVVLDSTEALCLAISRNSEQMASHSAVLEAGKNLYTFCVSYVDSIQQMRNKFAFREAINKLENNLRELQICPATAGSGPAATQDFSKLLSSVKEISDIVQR
Test [3] deals with Non-receptor tyrosine-protein kinase TNK1 (Homo sapiens) (UniProt Q13470). Nature of the test: Inhibition of TNK1 (unknown origin) at 1 uM by Ambit Kinomescan binding assay relative to control.
The target of test [4] is Casein kinase I isoform epsilon (Homo sapiens) (UniProt P49674). The test can be described thus: Inhibition of CK1epsilon Lys2 labeling site in human A-375 cells at 5 uM by KiNativ Profiling analysis relative to control. It counts as cell-based.
Chain of Casein kinase I isoform epsilon (Homo sapiens) (P49674 whole entry, looked up, canonical isoform): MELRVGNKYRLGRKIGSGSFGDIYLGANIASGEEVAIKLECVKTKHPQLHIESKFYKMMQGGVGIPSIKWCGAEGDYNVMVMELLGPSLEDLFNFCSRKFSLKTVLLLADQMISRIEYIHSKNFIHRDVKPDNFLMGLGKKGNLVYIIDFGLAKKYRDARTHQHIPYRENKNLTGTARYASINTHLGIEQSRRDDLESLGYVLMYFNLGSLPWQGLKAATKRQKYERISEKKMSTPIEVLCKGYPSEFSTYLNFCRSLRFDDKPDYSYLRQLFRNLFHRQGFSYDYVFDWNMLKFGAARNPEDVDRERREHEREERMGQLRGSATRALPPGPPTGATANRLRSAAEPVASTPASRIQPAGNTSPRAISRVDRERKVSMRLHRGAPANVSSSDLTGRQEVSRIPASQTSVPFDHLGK
The target of test [5] is Mitogen-activated protein kinase kinase kinase 12 (Homo sapiens) (UniProt Q12852). Nature of the test: Inhibition of DLK Lys2 labeling site harbouring in human A-375 cells at 0.5 uM by KiNativ Profiling analysis relative to control.
Chain of Mitogen-activated protein kinase kinase kinase 12 (Homo sapiens) (Q12852 whole entry, looked up): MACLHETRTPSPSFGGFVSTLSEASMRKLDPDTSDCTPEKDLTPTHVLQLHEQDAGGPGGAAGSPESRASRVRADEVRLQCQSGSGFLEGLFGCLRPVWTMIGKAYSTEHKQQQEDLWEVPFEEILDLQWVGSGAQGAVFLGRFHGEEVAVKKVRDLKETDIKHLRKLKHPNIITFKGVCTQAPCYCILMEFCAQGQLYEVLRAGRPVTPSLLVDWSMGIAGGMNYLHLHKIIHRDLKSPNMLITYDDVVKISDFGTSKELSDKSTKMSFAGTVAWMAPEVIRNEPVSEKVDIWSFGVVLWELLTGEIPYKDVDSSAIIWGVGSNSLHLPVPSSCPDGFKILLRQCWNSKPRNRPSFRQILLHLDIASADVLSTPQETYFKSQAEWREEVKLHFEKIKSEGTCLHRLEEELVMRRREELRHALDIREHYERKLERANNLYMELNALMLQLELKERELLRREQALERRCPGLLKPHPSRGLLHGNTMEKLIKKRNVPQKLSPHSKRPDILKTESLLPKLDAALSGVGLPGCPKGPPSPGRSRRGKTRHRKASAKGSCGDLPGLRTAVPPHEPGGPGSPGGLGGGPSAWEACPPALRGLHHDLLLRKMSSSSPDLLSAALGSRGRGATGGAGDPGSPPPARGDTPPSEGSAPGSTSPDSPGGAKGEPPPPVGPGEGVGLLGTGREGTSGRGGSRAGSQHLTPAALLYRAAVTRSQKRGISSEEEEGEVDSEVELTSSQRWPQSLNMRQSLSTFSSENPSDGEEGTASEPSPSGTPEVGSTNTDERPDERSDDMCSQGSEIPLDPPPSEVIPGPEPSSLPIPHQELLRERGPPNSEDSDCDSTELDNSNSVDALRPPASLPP
The target of test [6] is Vascular endothelial growth factor receptor 2 (Homo sapiens) (UniProt P35968). The test can be described thus: Inhibition of VEGFR2 (unknown origin) at 10 uM by Ambit Kinomescan binding assay relative to control; values are per cent of control.
Chain of Vascular endothelial growth factor receptor 2 (Homo sapiens) (P35968 whole entry): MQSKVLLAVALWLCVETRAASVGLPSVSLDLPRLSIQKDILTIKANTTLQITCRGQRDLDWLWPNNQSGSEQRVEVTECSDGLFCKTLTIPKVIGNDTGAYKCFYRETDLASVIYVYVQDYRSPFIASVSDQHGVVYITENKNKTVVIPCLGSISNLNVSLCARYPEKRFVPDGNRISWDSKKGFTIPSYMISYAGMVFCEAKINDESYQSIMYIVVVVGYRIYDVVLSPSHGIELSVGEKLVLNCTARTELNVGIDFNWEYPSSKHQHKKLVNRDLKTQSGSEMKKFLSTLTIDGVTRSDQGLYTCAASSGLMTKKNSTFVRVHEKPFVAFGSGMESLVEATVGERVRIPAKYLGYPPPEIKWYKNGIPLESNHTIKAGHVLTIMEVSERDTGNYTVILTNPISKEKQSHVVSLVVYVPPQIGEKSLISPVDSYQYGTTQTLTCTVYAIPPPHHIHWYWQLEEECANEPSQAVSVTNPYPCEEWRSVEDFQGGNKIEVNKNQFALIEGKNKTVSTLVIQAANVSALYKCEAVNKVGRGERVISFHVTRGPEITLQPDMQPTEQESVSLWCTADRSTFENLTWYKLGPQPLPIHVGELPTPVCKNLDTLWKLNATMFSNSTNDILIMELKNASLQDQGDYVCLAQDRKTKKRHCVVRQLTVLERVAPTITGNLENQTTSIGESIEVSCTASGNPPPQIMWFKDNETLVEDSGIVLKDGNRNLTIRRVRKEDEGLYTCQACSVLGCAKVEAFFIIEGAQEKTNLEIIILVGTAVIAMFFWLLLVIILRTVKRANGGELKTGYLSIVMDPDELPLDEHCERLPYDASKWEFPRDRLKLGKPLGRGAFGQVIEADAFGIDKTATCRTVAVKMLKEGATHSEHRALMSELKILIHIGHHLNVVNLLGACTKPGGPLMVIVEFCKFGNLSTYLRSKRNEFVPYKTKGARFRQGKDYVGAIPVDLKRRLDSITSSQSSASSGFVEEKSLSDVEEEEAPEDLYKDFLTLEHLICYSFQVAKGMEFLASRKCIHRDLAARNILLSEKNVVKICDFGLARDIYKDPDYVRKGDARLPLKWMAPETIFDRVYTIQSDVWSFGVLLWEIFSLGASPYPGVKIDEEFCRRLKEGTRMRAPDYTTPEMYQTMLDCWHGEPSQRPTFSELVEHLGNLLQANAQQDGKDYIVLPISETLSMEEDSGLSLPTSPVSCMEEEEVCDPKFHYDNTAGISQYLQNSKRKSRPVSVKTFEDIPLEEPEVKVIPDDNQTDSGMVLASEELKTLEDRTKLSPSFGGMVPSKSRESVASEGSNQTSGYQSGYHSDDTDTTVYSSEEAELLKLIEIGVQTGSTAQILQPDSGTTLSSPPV
Test [7] has as its target T1, Interleukin-1 receptor-associated kinase 4 (Homo sapiens) (UniProt Q9NWZ3).
T1 sequence (whole entry): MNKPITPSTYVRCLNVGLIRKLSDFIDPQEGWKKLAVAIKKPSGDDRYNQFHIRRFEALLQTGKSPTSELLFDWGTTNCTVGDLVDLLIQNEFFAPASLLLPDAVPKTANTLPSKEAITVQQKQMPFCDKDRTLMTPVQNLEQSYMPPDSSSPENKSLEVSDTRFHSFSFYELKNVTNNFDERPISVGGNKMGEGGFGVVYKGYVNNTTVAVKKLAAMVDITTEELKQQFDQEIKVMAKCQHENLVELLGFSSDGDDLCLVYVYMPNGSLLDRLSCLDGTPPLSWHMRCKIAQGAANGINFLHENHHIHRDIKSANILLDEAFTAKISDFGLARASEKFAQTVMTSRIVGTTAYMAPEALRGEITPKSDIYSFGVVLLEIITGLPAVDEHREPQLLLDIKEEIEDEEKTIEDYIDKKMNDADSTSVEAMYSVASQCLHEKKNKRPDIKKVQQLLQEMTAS
The test can be described thus: Inhibition of IRAK4 K2 labeling site in human Huh-7 cells at 1 uM by KiNativ Profiling analysis relative to control. It counts as cell-based.

Test [8] in a line: Inhibition of p70S6K ATP labeling site in human Huh-7 cell lysate at 1 uM by KiNativ Profiling analysis relative to control. Particulars: condition cancer.
In test [9] the target is T2, Serine/threonine-protein kinase TBK1 (Homo sapiens) (UniProt Q9UHD2).
T2 sequence (whole entry): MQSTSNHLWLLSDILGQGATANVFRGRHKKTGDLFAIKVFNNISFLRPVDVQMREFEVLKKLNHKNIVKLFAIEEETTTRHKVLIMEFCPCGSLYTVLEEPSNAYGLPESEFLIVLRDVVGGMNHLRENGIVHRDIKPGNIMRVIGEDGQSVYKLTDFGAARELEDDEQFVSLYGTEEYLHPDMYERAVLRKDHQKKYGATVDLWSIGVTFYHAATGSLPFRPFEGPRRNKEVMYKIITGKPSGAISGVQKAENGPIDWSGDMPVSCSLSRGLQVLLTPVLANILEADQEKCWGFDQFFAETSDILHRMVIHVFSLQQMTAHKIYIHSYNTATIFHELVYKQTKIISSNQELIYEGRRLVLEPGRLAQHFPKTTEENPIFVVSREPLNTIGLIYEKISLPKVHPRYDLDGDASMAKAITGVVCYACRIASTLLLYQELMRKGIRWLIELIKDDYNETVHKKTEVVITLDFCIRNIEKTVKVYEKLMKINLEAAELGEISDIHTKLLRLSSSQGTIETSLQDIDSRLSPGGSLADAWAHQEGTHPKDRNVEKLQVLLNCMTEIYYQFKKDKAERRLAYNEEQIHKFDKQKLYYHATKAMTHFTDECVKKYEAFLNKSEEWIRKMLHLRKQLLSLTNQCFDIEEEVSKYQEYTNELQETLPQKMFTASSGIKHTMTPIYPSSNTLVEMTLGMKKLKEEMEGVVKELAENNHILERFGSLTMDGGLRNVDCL
The test can be described thus: Inhibition of TBK1 Lys2 labeling site in human Huh-7 cell lysate at 1 uM by KiNativ Profiling analysis relative to control. It counts as subcellular.

Test [10] deals with Serine/threonine-protein kinase PLK1 (Homo sapiens) (UniProt P53350). Nature of the test: Inhibition of PLK1 Lys1 labeling site harbouring CFEISDADTKEVFAGKIVPK in human Huh-7 cell lysate at 1 uM by KiNativ Profiling analysis relative to control. Type of test: subcellular.
Chain of Serine/threonine-protein kinase PLK1 (Homo sapiens) (P53350 whole entry): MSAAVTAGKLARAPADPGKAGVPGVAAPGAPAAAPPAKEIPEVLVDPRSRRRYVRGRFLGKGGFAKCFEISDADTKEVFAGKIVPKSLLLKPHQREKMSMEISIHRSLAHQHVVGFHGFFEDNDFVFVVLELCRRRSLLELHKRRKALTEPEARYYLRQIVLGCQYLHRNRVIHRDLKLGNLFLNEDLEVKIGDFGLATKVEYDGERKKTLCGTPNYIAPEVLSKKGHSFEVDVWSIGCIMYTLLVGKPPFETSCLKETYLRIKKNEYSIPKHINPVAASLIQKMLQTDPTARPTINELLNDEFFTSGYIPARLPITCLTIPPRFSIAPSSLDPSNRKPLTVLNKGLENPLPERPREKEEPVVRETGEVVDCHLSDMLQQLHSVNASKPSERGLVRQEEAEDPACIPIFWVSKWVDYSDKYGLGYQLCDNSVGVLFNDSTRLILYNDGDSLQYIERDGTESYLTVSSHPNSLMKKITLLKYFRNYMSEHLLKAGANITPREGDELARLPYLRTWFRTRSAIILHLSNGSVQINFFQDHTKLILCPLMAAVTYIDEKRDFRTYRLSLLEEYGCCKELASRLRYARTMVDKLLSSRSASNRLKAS
The target of test [11] is T3, Mitogen-activated protein kinase kinase kinase 7 (Homo sapiens) (UniProt O43318).
T3 sequence (whole entry): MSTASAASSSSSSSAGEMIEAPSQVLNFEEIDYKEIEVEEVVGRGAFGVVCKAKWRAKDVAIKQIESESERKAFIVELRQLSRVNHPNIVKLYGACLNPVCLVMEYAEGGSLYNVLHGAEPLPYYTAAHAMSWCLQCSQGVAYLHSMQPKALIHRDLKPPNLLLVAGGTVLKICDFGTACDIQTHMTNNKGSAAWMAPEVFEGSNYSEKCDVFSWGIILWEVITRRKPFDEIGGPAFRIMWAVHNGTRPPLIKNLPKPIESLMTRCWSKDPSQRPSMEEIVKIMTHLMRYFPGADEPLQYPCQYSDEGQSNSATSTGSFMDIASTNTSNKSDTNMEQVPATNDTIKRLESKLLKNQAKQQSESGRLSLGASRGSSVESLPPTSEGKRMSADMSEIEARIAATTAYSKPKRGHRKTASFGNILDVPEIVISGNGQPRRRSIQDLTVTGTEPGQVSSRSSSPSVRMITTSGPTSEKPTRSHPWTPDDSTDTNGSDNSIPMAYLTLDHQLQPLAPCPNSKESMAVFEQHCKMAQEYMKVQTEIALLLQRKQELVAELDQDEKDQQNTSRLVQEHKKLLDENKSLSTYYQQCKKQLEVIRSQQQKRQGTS
The test can be described thus: Inhibition of TAK1 Lys2 labeling site harbouring DLKPPNLLLVAGGTVLK in human Huh-7 cells at 1 uM by KiNativ Profiling analysis relative to control. It counts as cell-based.

In turn, `CCN1CCN(Cc2ccc(NC(=O)c3ccc(C)c(/C=C/c4cnc5[nH]ccc5c4OC)c3)cc2C(F)(F)F)CC1` yielded a residual activity in test [1] of 100%. In addition, in test [2], the percent of control was found to be 3.4%. For the same compound, the inhibition in test [3] came out at 6.6%; in test [4], 1.4%; in test [5] it was 0.8%.

Compound `CCN1CCN(Cc2ccc(NC(=O)c3ccc(C)c(Oc4ccnc5[nH]ccc45)c3)cc2C(F)(F)F)CC1` showed a residual activity in [6] of 1.5%. Moreover, in test [7], the inhibition was -9.1%.

As to `CNc1cc(Oc2cc(C(=O)Nc3cc(N4CCN(C)CC4)cc(C(F)(F)F)c3)ccc2C)ncn1`, in test [8], the inhibition at 1 µM was found to be 2.8%. For the same compound, the results for the inhibition in test [9], in test [10] and in test [11] were -5.8%, 1% and 2.5%, respectively.
